Data on one compound can be found in patent US8198273B2, “Compounds and methods for kinase modulation, and indications therefor” (Plexxikon Inc., priority 2009, dated 2012).

One data set addresses CYP2D6 (Homo sapiens, UniProt P10635). The data set can be described thus: CYP2D6 inhibition (fluorescent substrate). It counts as in vitro ADME. The following applies: CYP2D6, AMMC substrate; read-out: Cyp IC50 2D6. The procedure, abridged:
(§1)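 First, 100 mM DMSO stocks are diluted into acetonitrile, then twofold through co-factor mix for 10 points. Next, mixtures are preincubated 10 min at 37 °C.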

In another data set the target is B-Raf (Homo sapiens, UniProt P15056). Nature of the data set: B-Raf biochemical kinase inhibition (AlphaScreen, biotin-MEK1 substrate). Conditions: 100 μM ATP. The procedure, abridged: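 Serial 1:3 dilutions of compound (0.1 mM DMSO stock, eight points) were added first, then ATP to start the reaction at 100 μM final.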
On the technique in general: Alpha assays give light when donor and acceptor beads are brought close together.

Another data set has as its target T1, CYP1A2 (Homo sapiens, UniProt P05177).
T1 sequence (P05177 1-516): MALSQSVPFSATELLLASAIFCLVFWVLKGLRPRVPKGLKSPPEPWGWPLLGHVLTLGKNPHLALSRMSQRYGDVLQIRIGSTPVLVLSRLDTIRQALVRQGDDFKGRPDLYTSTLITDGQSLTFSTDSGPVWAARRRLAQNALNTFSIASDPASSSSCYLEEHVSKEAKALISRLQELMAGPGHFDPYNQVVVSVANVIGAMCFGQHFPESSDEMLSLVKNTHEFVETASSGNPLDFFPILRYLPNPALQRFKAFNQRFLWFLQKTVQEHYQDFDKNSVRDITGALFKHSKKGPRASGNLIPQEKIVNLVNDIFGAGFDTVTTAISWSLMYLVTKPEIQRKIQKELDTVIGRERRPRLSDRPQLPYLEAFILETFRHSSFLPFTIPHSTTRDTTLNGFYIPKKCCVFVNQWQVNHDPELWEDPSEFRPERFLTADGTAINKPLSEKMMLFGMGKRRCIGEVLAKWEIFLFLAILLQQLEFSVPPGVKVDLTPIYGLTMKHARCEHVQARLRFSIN
The data set can be described thus: CYP1A2 inhibition (fluorescent substrate). The data set is classed as in vitro ADME. Conditions: CYP1A2, CEC substrate; read-out: Cyp IC50 1A2. The essentials:
as §1

pIC50: −log10 of the molar value.

As a reminder, the pIC50 is the IC50 on a negative log10 scale, so that one unit is a factor of ten.

Chain of CYP2D6 (P10635 whole entry): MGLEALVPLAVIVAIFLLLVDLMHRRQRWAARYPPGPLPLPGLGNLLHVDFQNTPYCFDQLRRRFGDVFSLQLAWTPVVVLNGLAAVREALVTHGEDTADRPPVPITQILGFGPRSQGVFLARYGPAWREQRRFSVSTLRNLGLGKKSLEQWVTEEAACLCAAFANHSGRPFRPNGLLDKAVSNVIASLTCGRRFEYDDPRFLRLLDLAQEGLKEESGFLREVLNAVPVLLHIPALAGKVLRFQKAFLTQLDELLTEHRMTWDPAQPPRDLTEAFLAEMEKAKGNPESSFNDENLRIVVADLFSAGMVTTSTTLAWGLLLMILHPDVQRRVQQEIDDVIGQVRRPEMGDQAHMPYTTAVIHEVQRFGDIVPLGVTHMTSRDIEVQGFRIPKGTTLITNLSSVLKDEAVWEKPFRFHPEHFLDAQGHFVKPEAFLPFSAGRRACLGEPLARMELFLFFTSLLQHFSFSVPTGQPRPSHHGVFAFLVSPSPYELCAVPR
Chain of B-Raf (P15056 whole entry): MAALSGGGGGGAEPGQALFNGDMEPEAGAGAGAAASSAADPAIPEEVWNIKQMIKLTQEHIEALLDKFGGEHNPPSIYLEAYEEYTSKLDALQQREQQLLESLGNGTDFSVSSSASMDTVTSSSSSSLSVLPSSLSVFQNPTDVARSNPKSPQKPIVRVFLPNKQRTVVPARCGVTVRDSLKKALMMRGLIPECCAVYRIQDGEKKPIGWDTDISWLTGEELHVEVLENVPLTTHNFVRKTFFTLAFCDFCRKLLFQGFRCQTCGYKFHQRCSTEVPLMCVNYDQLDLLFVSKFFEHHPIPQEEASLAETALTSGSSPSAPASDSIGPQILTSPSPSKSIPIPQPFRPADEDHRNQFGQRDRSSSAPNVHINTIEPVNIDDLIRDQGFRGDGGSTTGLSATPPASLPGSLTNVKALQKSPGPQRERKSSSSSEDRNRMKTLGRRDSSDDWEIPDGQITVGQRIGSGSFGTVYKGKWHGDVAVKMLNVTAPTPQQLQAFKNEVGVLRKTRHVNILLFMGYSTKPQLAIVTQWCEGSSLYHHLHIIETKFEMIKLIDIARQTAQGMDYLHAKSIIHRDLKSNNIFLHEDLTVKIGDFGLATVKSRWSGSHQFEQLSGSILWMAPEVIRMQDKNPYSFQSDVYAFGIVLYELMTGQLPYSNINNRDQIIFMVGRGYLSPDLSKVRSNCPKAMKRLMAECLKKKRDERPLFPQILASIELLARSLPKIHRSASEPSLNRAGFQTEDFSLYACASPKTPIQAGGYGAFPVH

Regarding `CCCS(=O)(=O)Nc1ccc(F)c(C(=O)c2c[nH]c3ncc(-c4ccc(N(C)C)nc4)cc23)c1F` [P-2229, Propane-1-sulfonic acid {3-[5-(6-dimethylamino-pyridin-3-yl)-1H-pyrrolo[2,3-b]pyridine-3-carbonyl]-2,4-difluoro-phenyl}-amide], the negative logarithm of the IC50 (pIC50) on CYP2D6 is below 5.00; against B-Raf, above 7.00; at CYP1A2, below 5.00.
